# Reference: US5620864A, “Acceptor for fucosyl transferase” (Health Research, Inc., priority 1992, dated 1997)
# Values joined by “and” are separate entries in the source; they are usually repeats but may differ in a detail not shown here. Equal entries are not always repeated.
# Tests used:
# [1] = biological target: T1, serum α1,3-L-fucosyltransferase (Homo sapiens, UniProt P51993); test: Assay of α1,3-fucosyltransferase with various synthetic acceptors, ovarian cancer sera as enzyme source; format: biochemical; conditions: for [14C] Fucose Incorporated (CPM): acceptor 0.3 mM, 37° C. 18 h
# T1 construct: Sera were collected from healthy females and ovarian cancer patients; from tissue; host or cells: blood serum of ovarian cancer patients and healthy females
# T1 sequence (P51993 35-359 limits assumed): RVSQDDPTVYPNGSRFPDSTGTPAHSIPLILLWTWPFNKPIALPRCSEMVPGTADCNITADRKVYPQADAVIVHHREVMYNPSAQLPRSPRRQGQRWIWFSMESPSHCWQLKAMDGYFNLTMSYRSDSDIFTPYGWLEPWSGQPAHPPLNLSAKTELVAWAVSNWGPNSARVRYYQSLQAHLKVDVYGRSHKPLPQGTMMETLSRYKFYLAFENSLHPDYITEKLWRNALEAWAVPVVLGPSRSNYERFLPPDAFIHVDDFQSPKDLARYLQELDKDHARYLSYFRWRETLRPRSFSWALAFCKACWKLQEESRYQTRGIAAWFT
# Protocol: Sera were collected from healthy females and ovarian cancer patients admitted to Roswell Park Cancer Institute in Buffalo, N.Y., USA. Ovarian tumor tissues were obtained during surgical procedures from patients with ovarian cancer. Both sera and tissues were stored frozen at -70° C. until use.
# (§1) An incubation mixture contained 50 mM HEPES-NaOH, pH 7.5, 5 mM MnC12, 7 mM ATP, 3 mM NaN3, the acceptor 0.3 mM (for serum enzyme) or 3.0 mM (for tumor enzyme), 0.125 μCi of GDP-[U-^14 C] Fuc (Sp. Act. 216 mCi/mmol) and enzyme in a total volume of 0.10 ml; the control incubation mixture had everything except the acceptor. At the end of incubation at 37° C. for 18 h, the mixture was diluted with 1 ml water and passed through Dowex-1-C1 column (1 ml in a Pasteur pipet). The column was washed twice with 1 ml water; the breakthrough and wash, which contained the [^14 C] fucosylated neutral acceptor, were collected together in a scintillation vial and counted for radioactivity using the scintillation coctail 3a70 (Research Products International, Mount Prospects, Ill.) and Beckman LS9000. The Dowex column was then eluted successively with 3 ml each of 0.1M and 0.2M NaCl; these eluates which contained the [^14 C] fucosylated sulfated acceptors, were counted for radioactivity as before. Corrections were made by subtracting the radioactivity in the water and NaCl eluates of the control incubation mixture from the corresponding test fractions. The duplicate runs of samples gave almost identical values, the difference being <5%.
# The activity of serum α1,3-fucosyltransferase was measured with the specific substrate 2'-methyl LacNAc and compared with the ability of several other synthetic substrates to act as an acceptor of fucose.
# When the structure of the acceptor 2'-methyl LacNAc was modified by replacing the methyl group with sulfate group in C-2', 3', 6' or 6 position and tested their ability to act as the acceptor of fucose, the following novel findings emerged. […] The β-benzyl glycoside of 3' sulfo LacNAc was quite active (168.4%) but less than the parent compound.
# [2] = tested on: α1,3-L-fucosyltransferase of the soluble fraction of human ovarian tumor; test: Assay of α1,3-fucosyltransferase with synthetic acceptors, partially purified enzyme of ovarian tumor soluble fraction; format: biochemical; conditions: for [14C] Fucose Incorporated (CPM): acceptor 3.0 mM, 37° C. 18 h
# Protocol: as §1
# As shown in the scheme set forth in FIG. 2, the α-L-fucosidase-free extract of the tissue (40 g), after concentration by 80% (NH4)2 SO4 precipitation was fractionated on bovine IgG glycopep-Sepharose in batches of 25 ml. After washing the column with the equilibration buffer, the bound enzyme was eluted with 1 M NaCl in the same buffer. The protein positive fractions were pooled and processed as shown in the scheme 2.0 ml of the above preparation was loaded on a Sephacryl S-200 column (Superfine:2.6 cm×88.0 cm) equilibrated at 4° C. with 50 mM Tris-HC1, pH 7.0 containing 0.15M NaCl and 0.1% Triton X-100 and eluted with the same buffer. Fractions of 3.0 ml were collected. The fucosyltransferase activity was located in the effluent fractions, by assaying first every 5th fraction and then obtaining the activity profile by assaying the alternate fractions in that range, using 2'-fucosyl LacNAc as the acceptor. […] Its elution position, which is slightly later than BSA, run separately on the same column, indicates its molecular weight as <67,000 daltons. […] The enzyme has been purified 66 fold over the soluble extract with a recovery of 6.2%. The enzyme at this stage lost its activity either kept frozen at -20° C. or left at 4° C. for more than a week. However, the enzyme at the end of the previous step was fairly stable for at least two months at 4° C. So this preparation of enzyme was used in acceptor ability comparison studies.
# When α1,3-fucosyltransferase activity of the partially purified enzyme preparation from the soluble portion of ovarian tumor was measured and compared with the activity of other acceptors, the following results were obtained. 2'-methyl LacNAc, LacNAc and Galβ1, 3GlcNAc were respectively 100.0%, 60.6% and 565.5% active, indicating the presence of both α1,3 and α1,4 fucosyltransferase activities in this preparation.
# [3] = tested on: α1,3-L-fucosyltransferase of the particulate fraction of ovarian tumor; test: Assay of α1,3-fucosyltransferase with synthetic acceptors, ovarian tumor particulate fraction; format: biochemical, human; conditions: for Relative Percent: 2'-methyl LacNAc = 100; for [14C] Fucose Incorporated (CPM): acceptor 3.0 mM, 37° C. 18 h
# Protocol: FIG. 2 The scheme for the preparation of the particulate and soluble fractions of human ovarian tumor.
# as §1
# This finding is quite different from what we found with the soluble fraction, where α1,4-fucosyltransferase activity seems to be greater than α1,3-fucosyltransferase activity. […] The different nature of the above enzymes was made further clear, when sulfated derivatives of LacNAc was tested as acceptors.
Structure (SMILES),Relative Percent ([1]; 2'-methyl LacNAc = 100),[14C] Fucose Incorporated (CPM) [1],Relative Percent ([2]; 2'-methyl LacNAc = 100),[14C] Fucose Incorporated (CPM) [2],Relative Percent [3],[14C] Fucose Incorporated (CPM) [3],"Relative Percent ([2]; 2'-methyl LacNAc = 100, listed as 2' sulfo LacNAc)","Relative Percent ([2]; 2'-methyl LacNAc = 100, listed as 2' sulfo-LacNAc)","Relative Percent ([1]; 2'-methyl LacNAc = 100, listed as 3-Sulfo Galβ1, 3GlcNAcβ-O-Bn)","Relative Percent ([2]; 2'-methyl LacNAc = 100, listed as 3-sulfo Galβ1,3GlcNAcβ-O-Bn)","Relative Percent ([2]; 2'-methyl LacNAc = 100, listed as β-benzyl glycoside of 3-sulfoGalβ1, 3 GlcNAc)","Relative Percent ([2]; 2'-methyl LacNAc = 100, listed as 6' sulfo LacNAc)","Relative Percent ([2]; 2'-methyl LacNAc = 100, listed as 6-'-sulfo LacNAc)","Relative Percent ([2]; 2'-methyl LacNAc = 100, listed as 6-sulfo LacNAc)"
"CC(=O)N[C@H]1C(O)O[C@H](CO)[C@@H](O[C@@H]2O[C@H](CO)[C@H](O)[C@H](O)[C@H]2O[C@@H]2O[C@@H](C)[C@@H](O)[C@@H](O)[C@@H]2O)[C@@H]1O (stereo partly shown) [2'-Fucosyl LacNAc, 2'-Fucosyl N-acetyllactosamine]",253.1%,4379 CPM,436.1%,32235 CPM,144.7%,69824 CPM,–,–,–,–,–,–,–,–
CC(=O)N[C@H]1[C@H](OCc2ccccc2)O[C@H](CO)[C@@H](O[C@@H]2O[C@H](CO)[C@H](O)[C@H](O)[C@H]2O[C@@H]2O[C@@H](C)[C@@H](O)[C@@H](O)[C@@H]2O)[C@@H]1O [2'-Fucosyl LacNAcβ-O--Bn],425.0%,7352 CPM,373.0%,27571 CPM,174.0%,83975 CPM,–,–,–,–,–,–,–,–
CC(=O)N[C@H]1C(O)O[C@H](CO)[C@@H](O[C@@H]2O[C@H](CO)[C@H](O)[C@H](O)[C@H]2OS(=O)(=O)O)[C@@H]1O (stereo partly shown) [2'-Sulfo LacNAc],22.0%,380 CPM,32.7%,2414 CPM,9.8%,4718 CPM,33%,32.7%,–,–,–,–,–,–
CO[C@H]1[C@H](O[C@H]2[C@H](O)[C@@H](NC(C)=O)[C@H](OCc3ccccc3)O[C@@H]2CO)O[C@H](CO)[C@H](O)[C@@H]1O [2'-methyl LacNAcβ-O--Bn],307.9%,5326 CPM,113.2%,8367 CPM,149.2%,71989 CPM,–,–,–,–,–,–,–,–
"CC(=O)N[C@H]1[C@H](OCc2ccccc2)O[C@H](CO)[C@@H](O[C@@H]2O[C@H](CO)[C@H](O)[C@H](OS(=O)(=O)O)[C@H]2O)[C@@H]1O [3'-Sulfo LacNAcβ-O--Bn, Benzyl 4-0-(sodium β-D-Galactopyranosyl 3-Sulfate)-2-acetamido-2-deoxy-β-D-Glucopyranoside]",168.4%,2913 CPM,183.8%,13585 CPM,33.3%,16062 CPM,–,–,–,–,–,–,–,–
CC(=O)N[C@H]1C(O)O[C@H](CO)[C@@H](O[C@@H]2O[C@H](CO)[C@H](O)[C@H](O)[C@H]2O)[C@@H]1O[C@@H]1O[C@@H](C)[C@@H](O)[C@@H](O)[C@@H]1O (stereo partly shown) [3-Fucosyl LacNAc],4.7%,82 CPM,1.9%,144 CPM,3.7%,1801 CPM,–,–,–,–,–,–,–,–
"CC(=O)N[C@H]1[C@H](OCc2ccccc2)O[C@H](CO)[C@@H](O)[C@@H]1O[C@@H]1O[C@H](CO)[C@H](O)[C@H](OS(=O)(=O)O)[C@H]1O [3-SulfoGa1β1,3G1cNAcβ-O--Bn, Benzyl 3-0-(sodium β-D-Galactopyranosy 3-Sulfate)-2-acetamido-2-deoxy-β-D-Glucopyranoside]",0%,0 CPM,415.4%,30704 CPM,2.9%,1382 CPM,–,–,did not show any activity,415.4%,415%,–,–,–
CC(=O)N[C@H]1C(O)O[C@H](CO)[C@@H](O[C@@H]2O[C@H](COS(=O)(=O)O)[C@H](O)[C@H](O)[C@H]2O)[C@@H]1O (stereo partly shown) [6'-Sulfo LacNAc],36.2%,626 CPM,5.3%,395 CPM,42.6%,20543 CPM,–,–,–,–,–,5%,5.3%,–
"CC(=O)N[C@H]1C(O)O[C@H](COS(=O)(=O)O)[C@@H](O[C@@H]2O[C@H](CO)[C@H](O)[C@H](O)[C@H]2O)[C@@H]1O (stereo partly drawn) [6-Sulfo LacNAc, β-D-GALACTOPYRANOSYL-(1→4)-SODIUM 2-ACETAMIDO-2-DEOXY-D-GLUCOPYRANOSE 6-SULFATE]",172.4%,2983 CPM,272.6%,20148 CPM,53.3%,25740 CPM,–,–,–,–,–,–,–,272% and 272.6%
"CC(=O)N[C@H]1[C@@H](Oc2ccccc2[N+](=O)[O-])O[C@H](CO[C@@H]2O[C@H](CO)[C@@H](O)[C@H](O)[C@H]2NC(C)=O)[C@H](O)[C@@H]1O [G1cNAcβ1,6Ga1NAcα-O--ONp]",9.5%,164 CPM,0%,0 CPM,–,–,–,–,–,–,–,–,–,–
"CO[C@@H]1O[C@H](CO)[C@H](O)[C@H](O[C@@H]2O[C@H](CO)[C@@H](O)[C@H](O[C@@H]3O[C@H](CO)[C@H](O)[C@H](O)[C@H]3O)[C@H]2NC(C)=O)[C@H]1O [Ga1β1,3G1cNAcβ1,3Ga1β-O--Me]",42.7%,739 CPM,–,–,42.6%,20559 CPM,–,–,–,–,–,–,–,–
